Source: PMC4595804, “A strategy to discover decoy chemokine ligands with an anti-inflammatory activity” (Scientific Reports, 2015)

What was measured:
Format in all cases: cell-based
CCL2 = biological target: T1, CCL2 (Homo sapiens, UniProt P13500); test: Selectivity, neutraligand protocol, EGFP-CCR2+ HEK cells; conditions: 10 μM compound, 5 nM CCL2, EGFP-CCR2+ HEK cells
T1 construct: purchased R&D systems
Description: (§1) Figure 6 (a) Selectivity of CCL17 and CCL22 neutraligands towards 10 chemokines according to the “neutraligand protocol”. […] Each column represents the mean (block) ± SD (bars) of n = 3 experiments performed in triplicate. *p < 0.05; **p < 0.01; ***p < 0.005 as compared to chemokine + DMSO. (b) Chemokine neutraligands inhibited CCR4 endocytosis induced by CCL22 or CCL17. EGFP-CCR4^+ HEK cells were incubated for 30 min with DMSO or chemokine (100 nM CCL22 or CCL17) in the presence or absence of test compounds. […] Cell surface EGFP-tagged CCR4 receptors were measured by EGFP antibody labeling and flow cytometry analysis. CCR4 internalization was expressed as a percentage of total receptor surface expression calculated using control cells incubated with DMSO (100%). […] The number of migrating cells in the presence of chemokine and compounds were expressed as the corresponding percentages. Results were analyzed by fitting the experimental curves (% of migrating cells vs log compound concentration) using the Kaleidagraph software program, and the corresponding IC50 values were calculated. […]
Dye loaded cells were placed in the FlexStation 3 (Molecular Devices). Calcium mobilization was measured at 401 and 475 nm emission fluorescence after excitation at 355 nm. […] Raw fluorescence data (at 401 and 475 nm) were exported and the ratio 401/475 was calculated. […]

CCL22 [1] = biological target: T2, CCL22 (Homo sapiens, UniProt O00626); test: CCL22-induced EGFP-CCR4 receptor internalization (flow cytometry); conditions: 100 nM CCL22, 30 min, 0.03–3 μM compound; read-out: half-maximal efficiency, reduction of CCL22-induced CCR4 internalization
T2 construct: codes for the mature CCL17 or CCL22 with an N-terminal thioredoxin-hexahistidin (TRX- (His)6) tag; thioredoxin (TRX) (N, cleaved yes); (His)6 (N, cleaved yes); made in house; host or cells: E. coli BL21 (DE3)
T2 sequence (O00626 25-93): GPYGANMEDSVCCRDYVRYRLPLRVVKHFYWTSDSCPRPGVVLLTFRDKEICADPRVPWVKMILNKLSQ
Description: Figure 6 (a) Selectivity of CCL17 and CCL22 neutraligands towards 10 chemokines according to the “neutraligand protocol”. […] Each column represents the mean (block) ± SD (bars) of n = 3 experiments performed in triplicate. *p < 0.05; **p < 0.01; ***p < 0.005 as compared to chemokine + DMSO. (b) Chemokine neutraligands inhibited CCR4 endocytosis induced by CCL22 or CCL17. EGFP-CCR4^+ HEK cells were incubated for 30 min with DMSO or chemokine (100 nM CCL22 or CCL17) in the presence or absence of test compounds. […] Cell surface EGFP-tagged CCR4 receptors were measured by EGFP antibody labeling and flow cytometry analysis. CCR4 internalization was expressed as a percentage of total receptor surface expression calculated using control cells incubated with DMSO (100%). Each column represents the mean (block) ± SD (bars) of n = 3 experiments performed in triplicate. *p < 0.05; **p < 0.01; ***p < 0.005 as compared to chemokine alone. (c,d) Inhibition of CCL17 and CCL22- induced CCR4^+HUT78 T cell chemotaxis by neutraligands. […] The number of migrating cells in the presence of chemokine and compounds were expressed as the corresponding percentages. Results were analyzed by fitting the experimental curves (% of migrating cells vs log compound concentration) using the Kaleidagraph software program, and the corresponding IC50 values were calculated. […]

CCL22 [2] = biological target: T2, CCL22; test: CCL22-induced CCR4+ HUT78 T cell chemotaxis (Transwell), neutraligand protocol; conditions: 3 nM CCL22 preincubated 1 h with compound; read-out: IC50, inhibition of CCL22-induced HUT78 chemotaxis
Description: as §1
The T- cell line, HUT78 (ATCC), was cultured in RPMI 1640 supplemented with streptomycin, penicillin and 10% FCS without phenol red. […] After a 2 h incubation at 37 °C and 5%CO2, the plates were read with an excitation wavelength of 485 nm and an emission wavelength of 535 nm. […]

T1 sequence (P13500 24-99): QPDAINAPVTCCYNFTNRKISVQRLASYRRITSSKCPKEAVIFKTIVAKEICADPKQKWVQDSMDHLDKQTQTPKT

effect on calcium responses induced by CCL2 (CCL2): no effect
IC50 (CCL22 [1]): ~100 nM
IC50 (CCL22 [2]): 0.34 ± 0.1 nM
Compound: O=C(OCC(O)CO)c1ccccc1O (stereo not drawn) [GPN136, 2,3-dihydroxypropyl 2-hydroxybenzoate]
